# Laboratory results reported in patent US8466151B2, “Compounds and method for treatment of cancer” (Critical Outcome Technologies, Inc., priority 2007, dated 2013).
# Read-outs that look alike come from different tables or passages of the source.
# Assays:
# [1] = test system: human SHP-77 SCLC cells as xenograft; experiment: Inhibition of tumor growth, SHP-77 xenograft in NCr-nu mice; type: in vivo; settings: for maximum number of tumours versus control, saline-treated mice / mean tumour size versus saline-treated mice: SHP-77 xenografts; for maximum number of tumours versus control, saline-treated mice: FIG. 6, not subject to analysis of significance; for mean tumour size versus saline-treated mice: i.p. treatment up to 38 days, p<0.05; for mean tumor volume: SHP-77 small cell lung cancer xenografts, saline control 260±33 mm^3
# Description: SHP-77 SCLC cells were grown in culture and injected into each flank of NCr-nu mice (T cell-deficient immunocompromised mice, suitable for growth of this cell line) (2×10^6 cells per injection, in Matrigel™). One day after injection of tumour cells, groups of 5 mice each were injected with 3 mg/kg of COTI-2MO5 or COTI-4MO5 (i.p.), once every 2 days, up to 38 days. Tumour size was estimated at 5, 10, 17, 24, and 38 days, by external caliper measurement. Animals were humanely euthanized after the 38 day tumour measurement.
# For comparison, mice (5 mice per group, injected as described above with SHP-77 human tumor cells as described above) and harbouring SHP-77 xenografts were treated with Taxol® (12.5 mg/kg, i.p. in 0.5 ml isotonic saline) every 2 days (according to the report of J. Riondel et al., Anticancer Res. 8:387-90, 1988) or with cisplatin (3.0 mg/kg of DDP i.p., once per week for four weeks, in isotonic saline, according to the report of P. A. Andrews et al., Cancer Commun. 2:93-100, 1990). Tumour size was estimated at 5, 10, 17, 24, and 38 days, by external caliper measurement. Animals were humanely euthanized after the 38 day tumour measurement.
# [2] = test system: H226 squamous cell carcinoma-derived cells (NSCLC); experiment: In vitro tumor cell growth inhibition, cell count after 3 days; type: cell-based; settings: Homo sapiens
# Description: (§1) In vitro inhibition of non-small cell lung cancer (NSCLC) cell lines by the compound of Formula 1B (COTI-4) was evaluated. […] Cells were counted after 3 days in culture and at a cell density of no more than 80%.
# (§2) In vitro inhibition of non-small cell lung cancer (NSCLC) cell lines by the compound of Formula 1A is evaluated. […] Cells are counted after 3 days in culture and at a cell density of no more than 80%.
# (§3) Briefly, cells were plated in plastic tissue culture plates and grown under standard conditions for each cell line, in carbon dioxide/oxygen atmosphere in plastic tissue culture plates, in the presence of COTI-4 or COTI-4A compounds at 35° C. for 3 days. Control cultures were treated with vehicle minus compound. Cells were counted after 3 days in culture and at a cell density of no more than 80%. The following cell lines, obtained from the National Cancer Institute, were tested: human SCLC cell lines DMS 153, DMS114, SHP77; human NSCLC cell lines H226, A460, A549; human breast cancer cell lines T47D, MCF7; human colon cancer cell line HT29; and, human Leukemia cell lines K562, HL60.
# [3] = test system: A549 adenocarcinoma-derived cells (NSCLC); experiment: as above; type: cell-based; settings: Homo sapiens
# Description: as §1, §2, §3
# [4] = test system: A460 large cell carcinoma-derived cells (NSCLC; also printed H460); experiment: as above; type: cell-based; settings: Homo sapiens
# Description: as §1, §2, §3
# [5] = test system: human small cell lung cancer cell lines (DMS-114, DMS-153, SHP-77); experiment: In vitro inhibition of SCLC cell lines, summary statements; type: cell-based
# Source text: (§4) Cells were counted after 3 days in culture and at a cell density of no more than 80%.
# (§5) In vitro inhibition of small cell lung cancer (SCLC) cell lines by the compound of formula 1A was done with standard human tumor cells (established cell lines available from the American Type Tissue culture collection). […] Cells were counted after 3 days in culture and at a cell density of no more than 80%.
# [6] = test system: human non-small cell lung cancer cell lines (A549, H226, A460); experiment: In vitro inhibition of NSCLC cell lines, summary statements; type: cell-based; settings: across NSCLC cell lines, read-out: IC50 values, inhibits growth and/or kills NSCLC cells
# Description: (§6) In vitro inhibition of non-small cell lung cancer (NSCLC) cell lines by the compound of Formula 1B (COTI-4) was evaluated. Standard numbers of human tumor cells (established cell lines available from the American Type Tissue culture collection) were plated in plastic tissue culture plates and grown under standard conditions for each cell line, in carbon dioxide/oxygen atmosphere in plastic tissue culture plates, in the presence of COTI-4 (0-1 mM) or Gleevec® ([…]) at 35° C. for 3 days. Control cultures were treated with vehicle minus compound or Gleevec®. Cells were counted after 3 days in culture and at a cell density of no more than 80%.
# as §6, with “Formula 1A is” for “Formula 1B (COTI-4) was”, “of compounds of formula 1A” for “of COTI-4”, “cultures are” for “cultures were”, “Cells are” for “Cells were”
# [7] = test system: DMS-153 human SCLC cell line; experiment: In vitro tumor cell growth inhibition, cell count after 3 days; type: cell-based; settings: for IC50: DMS-153 SCLC cells, 3 days, 35° C.
# Description: as §4, §5, §3
# [8] = test system: SHP-77 human SCLC cell line; experiment: as above; type: cell-based; settings: for IC50: Homo sapiens
# Description: as §4, §5, §3
# [9] = test system: DMS-114 human SCLC cell line; experiment: as above; type: cell-based
# Description: as §4, §5, §3
# [10] = test system: HL60 human Leukemia cell line; experiment: In vitro IC50 against cancer cell lines; type: cell-based; settings: HL-60, 72 h, HL60 leukemia cells, 3 days, 35° C.
# Description: (§7) Briefly, cells were plated in plastic tissue culture plates and grown under standard conditions for each cell line, in carbon dioxide/oxygen atmosphere in plastic tissue culture plates, in the presence of COTI-4 or COTI-4A compounds at 35° C. for 3 days. Control cultures were treated with vehicle minus compound. Cells were counted after 3 days in culture and at a cell density of no more than 80%.
# [11] = test system: MCF7 human breast cancer cell line; experiment: In vitro IC50 against cancer cell lines; type: cell-based; settings: 72 h, MCF7 breast cancer cells, 3 days, 35° C.
# Description: as §7
# [12] = test system: K562 human Leukemia cell line; experiment: In vitro IC50 against cancer cell lines; type: cell-based; settings: 72 h, K562 leukemia cells, 3 days, 35° C.
# Description: as §7
# [13] = test system: T47D human breast cancer cell line; experiment: In vitro IC50 against cancer cell lines; type: cell-based; settings: 72 h, T47D breast cancer cells, 3 days, 35° C.
# Description: as §7
# [14] = test system: HT29 human colon cancer cell line; experiment: In vitro IC50 against cancer cell lines; type: cell-based; settings: HT-29, 72 h, HT29 colorectal cancer cells, 3 days, 35° C.
# Description: as §7
# [15] = Escalating dose acute toxicity study in mice; type: in vivo; settings: mice, 4, 8, 16 mg/kg, alternate day IP injections for 28 days
# Description: An escalating dose acute toxicity study was conducted with COTI-2, COTI-4 (Formula 1B) and COTI-219. Standard lab mice were divided into four treatment groups (control, 4, 8, 16 mg/kg) with four animals per group. It should be noted that the highest dose was approximately 10 times the estimated effective dose. Mice were given alternate day IP injections for 28 days.
# [16] = NCI-H226, 72 h, H226 NSCLC cells, 3 days, 35° C., read-out: IC50
# [17] = NCI-H226, actual in-vitro data, logarithm of IC50, negative, read-out: H226 (Log IC50) (converted)
# [18] = 72 h, A549 NSCLC cells, 3 days, 35° C., read-out: IC50
# [19] = A549, actual in-vitro data, logarithm of IC50, negative, read-out: A549 (Log IC50) (converted)
# [20] = NCI-H460, 72 h, A460 NSCLC cells, 3 days, 35° C., read-out: IC50
# [21] = NCI-H460, actual in-vitro data, logarithm of IC50, negative, read-out: H460 (Log IC50) (converted)
# [22] = SHP77, 72 h, SHP-77 SCLC cells, 3 days, 35° C., read-out: IC50
# [23] = SHP77, actual in-vitro data, logarithm of IC50, negative, read-out: SHP-77 (Log IC50) (converted)
# [24] = Homo sapiens, DMS-114, actual in-vitro data, logarithm of IC50, negative, read-out: DMS114 (Log IC50) (converted)
Compound,"maximum number of tumours versus control, saline-treated mice [1]",mean tumour size versus saline-treated mice [1],"IC50 [2, 16] [µM]","IC50 [2, 17] [µM]","IC50 [3, 18] [µM]","IC50 [3, 19] [µM]","IC50 [4, 20] [µM]","IC50 [4, 21] [µM]",IC50 [6] [nM],"IC50 [8, 22] [µM]","IC50 [8, 23] [µM]","IC50 [9, 24] [nM]",mean tumor volume [1] [mm^3],also measured
S=C(N/N=C1/CCCc2cccnc21)N1CCN(c2ccccn2)CC1 [COTI-2],lower than that in control,significantly lower,,,,,,,,,,,,
CN1CCN(C(=S)NN=C2c3ncccc3-c3cccnc32)CC1 [COTI-219],lower than that in control,,,,,,,,,,,,,
"CN1CCN(C(=S)NN=C(c2ccccc2)c2ccnnc2)CC1 [Formula 1A, 4-methyl-N′-[phenyl(pyridazin-4-yl)methylidene]piperazine-1-carbothiohydrazide]",,,90,63.5,1.5,1.57,100,72.4,≥ 1500,10,10.7,650,,"melting point: 141 to 143 °C; IC50 ([5]; Homo sapiens, across SCLC cell lines, depending on cell line tested, read-out: IC50 values, inhibits growth and/or kills SCLC cells): ≥ 650 nM; times more effective in vitro than Gleevec® ([7]; DMS-153): about 100; effectiveness relative to Gleevec® ([8]; SHP-77): about twice as effective; times more effective in vitro than Gleevec® ([9]; DMS-114): about 100; IC50 ([9]; DMS-114 SCLC cells, 3 days, 35° C., listed as COTI-4A, read-out: IC50): 650 nM; IC50 ([9]; Homo sapiens, DMS-114, 72 h, DMS-114 SCLC cells, 3 days, 35° C., read-out: IC50): < 1000 nM"
"CN1CCN(C(=S)NN=C(c2ccccn2)c2ccccn2)CC1 [Formula 1B, N′-(dipyridin-2-ylmethylidene)-4-methylpiperazine-1-carbothiohydrazide]",lower than that in control,significantly lower,2.5,2.5,6.8,6.81,5.1,5.11,≥ 2500,0.173,0.173,30,6.2,"IC50 [10]: 318 nM; IC50 [11]: 291 nM; IC50 [12]: 95 nM; IC50 [13]: 224 nM; IC50 [14]: 83 nM; acute toxicity / adverse events [15]: safe and non-toxic at all dosage levels; times more effective than Gleevec® against these cell lines in vitro ([5]; 3 human small cell lung cancer cell lines): over 100; IC50 ([7]; listed as COTI-4 (1B)): 130 nM; IC50 ([7]; listed as COTI-4M05): 130 nM; IC50 ([9]; DMS-114 SCLC cells, 3 days, 35° C., listed as COTI-4 (1B), read-out: IC50): 30 nM; IC50 ([9]; DMS-114 SCLC cells, 3 days, 35° C., listed as COTI-4M05, read-out: IC50): 30 nM"
"CC(=O)O[C@H]1C(=O)[C@@]2(C)[C@H]([C@H](OC(=O)c3ccccc3)[C@]3(O)C[C@H](OC(=O)[C@H](O)[C@@H](NC(=O)c4ccccc4)c4ccccc4)C(C)=C1C3(C)C)[C@]1(OC(C)=O)CO[C@@H]1C[C@@H]2O [Taxol®, paclitaxel]",lower than that in control,significantly lower,,,,,,,,,,,183,
N.N.[Cl][Pt][Cl] [cisplatin],lower than that in control,significantly lower,,,,,,,,,,,132±26,
